According to PubChem BioAssay AID2060508 (Molecular Pharmacology Branch, DTP, NCI, 2025):

system: 454973-116-R2-J3-PDC spheroids, viability, % test/control; experiment: Anticancer human tumor 454973-116-R2-J3-PDC patient-derived pancreatic carcinoma cell line growth inhibition [GQUAD]; conditions: curve of first compound; second compound 0.0316 µM; spheroids with HUVEC and MSC
How it was run: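 Tumor cells were grown as complex spheroids with HUVEC endothelial cells and mesenchymal stem cells as stroma. G-quadruplex stabilizers were combined with targeted agents over half-log dilutions from near the clinical Cmax, or from 10 microM.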
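Further: spheroids exposed to compounds for seven days.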

Going from `C#Cc1c(F)ccc2cc(O)cc(-c3ncc4c(N5CC6CCC(C5)N6)nc(OCC56CCCN5CC(F)C6)nc4c3F)c12` (stereo unspecified) + Cc1cnc(CNC(=O)c2c(=O)c3ccc(N4CCCN(C)CC4)nc3n3c2sc2ccccc23)cn1 to `C=CCn1c(=O)c2cnc(Nc3ccc(N4CCN(C)CC4)cc3)nc2n1-c1cccc(C(C)(C)O)n1` + Cc1cnc(CNC(=O)c2c(=O)c3ccc(N4CCCN(C)CC4)nc3n3c2sc2ccccc23)cn1, the IC50 rises from under 31.6 nM to 190 nM.

First: CC(C)(O)C1CCC(Nc2ccc3ncc(-c4cccc(C(F)(F)F)c4)n3n2)CC1 (stereo unspecified) + Cc1cnc(CNC(=O)c2c(=O)c3ccc(N4CCCN(C)CC4)nc3n3c2sc2ccccc23)cn1
Second: O=C(NO)c1cnc(N2CCN(S(=O)(=O)c3ccc4ccccc4c3)CC2)nc1 + Cc1cnc(CNC(=O)c2c(=O)c3ccc(N4CCCN(C)CC4)nc3n3c2sc2ccccc23)cn1
The IC50 of the first is 8.7-fold higher: 1730 nM for the first, 198 nM for the second. The second is the more potent here.

For `Cc1[nH]c2ccccc2c1CCNCc1ccc(/C=C/C(=O)NO)cc1` + Cc1cnc(CNC(=O)c2c(=O)c3ccc(N4CCCN(C)CC4)nc3n3c2sc2ccccc23)cn1, the IC50 was 59.6 nM.

same assay, conditions: curve of first compound; second compound 0.1 µM; spheroids with HUVEC and MSC

First: C#Cc1c(F)ccc2cc(O)cc(-c3ncc4c(N5CC6CCC(C5)N6)nc(OCC56CCCN5CC(F)C6)nc4c3F)c12 (stereo unspecified) + Cc1cnc(CNC(=O)c2c(=O)c3ccc(N4CCCN(C)CC4)nc3n3c2sc2ccccc23)cn1
Second: C=CCn1c(=O)c2cnc(Nc3ccc(N4CCN(C)CC4)cc3)nc2n1-c1cccc(C(C)(C)O)n1 + Cc1cnc(CNC(=O)c2c(=O)c3ccc(N4CCCN(C)CC4)nc3n3c2sc2ccccc23)cn1
The IC50 of the first is lower: under 31.6 nM for the first, 121 nM for the second. The first is the more potent here.

Compared with `CC(C)(O)C1CCC(Nc2ccc3ncc(-c4cccc(C(F)(F)F)c4)n3n2)CC1` (stereo unspecified) + Cc1cnc(CNC(=O)c2c(=O)c3ccc(N4CCCN(C)CC4)nc3n3c2sc2ccccc23)cn1, `O=C(NO)c1cnc(N2CCN(S(=O)(=O)c3ccc4ccccc4c3)CC2)nc1` + Cc1cnc(CNC(=O)c2c(=O)c3ccc(N4CCCN(C)CC4)nc3n3c2sc2ccccc23)cn1 is 9.5-fold lower in IC50: 1550 nM for the first, 163 nM for the second. The second is the more potent here.

Work on `Cc1[nH]c2ccccc2c1CCNCc1ccc(/C=C/C(=O)NO)cc1` + Cc1cnc(CNC(=O)c2c(=O)c3ccc(N4CCCN(C)CC4)nc3n3c2sc2ccccc23)cn1 yielded an IC50 of 56.9 nM.

same assay, conditions: curve of first compound; second compound 0.316 µM; spheroids with HUVEC and MSC

Going from `C#Cc1c(F)ccc2cc(O)cc(-c3ncc4c(N5CC6CCC(C5)N6)nc(OCC56CCCN5CC(F)C6)nc4c3F)c12` (stereo unspecified) + Cc1cnc(CNC(=O)c2c(=O)c3ccc(N4CCCN(C)CC4)nc3n3c2sc2ccccc23)cn1 to `C=CCn1c(=O)c2cnc(Nc3ccc(N4CCN(C)CC4)cc3)nc2n1-c1cccc(C(C)(C)O)n1` + Cc1cnc(CNC(=O)c2c(=O)c3ccc(N4CCCN(C)CC4)nc3n3c2sc2ccccc23)cn1, the IC50 rises from under 31.6 nM to 110 nM.

Going from `CC(C)(O)C1CCC(Nc2ccc3ncc(-c4cccc(C(F)(F)F)c4)n3n2)CC1` (stereo unspecified) + Cc1cnc(CNC(=O)c2c(=O)c3ccc(N4CCCN(C)CC4)nc3n3c2sc2ccccc23)cn1 to `O=C(NO)c1cnc(N2CCN(S(=O)(=O)c3ccc4ccccc4c3)CC2)nc1` + Cc1cnc(CNC(=O)c2c(=O)c3ccc(N4CCCN(C)CC4)nc3n3c2sc2ccccc23)cn1, the IC50 falls from 1630 nM to 144 nM (11-fold). The second is the more potent here.

In the case of `Cc1[nH]c2ccccc2c1CCNCc1ccc(/C=C/C(=O)NO)cc1` + Cc1cnc(CNC(=O)c2c(=O)c3ccc(N4CCCN(C)CC4)nc3n3c2sc2ccccc23)cn1, the IC50 is reported as 50.5 nM.

same assay, conditions: curve of first compound; second compound 1 µM; spheroids with HUVEC and MSC

First: C#Cc1c(F)ccc2cc(O)cc(-c3ncc4c(N5CC6CCC(C5)N6)nc(OCC56CCCN5CC(F)C6)nc4c3F)c12 (stereo unspecified) + Cc1cnc(CNC(=O)c2c(=O)c3ccc(N4CCCN(C)CC4)nc3n3c2sc2ccccc23)cn1
Second: C=CCn1c(=O)c2cnc(Nc3ccc(N4CCN(C)CC4)cc3)nc2n1-c1cccc(C(C)(C)O)n1 + Cc1cnc(CNC(=O)c2c(=O)c3ccc(N4CCCN(C)CC4)nc3n3c2sc2ccccc23)cn1
The IC50 of the first is lower: under 31.6 nM for the first, 263 nM for the second.

Going from `CC(C)(O)C1CCC(Nc2ccc3ncc(-c4cccc(C(F)(F)F)c4)n3n2)CC1` (stereo unspecified) + Cc1cnc(CNC(=O)c2c(=O)c3ccc(N4CCCN(C)CC4)nc3n3c2sc2ccccc23)cn1 to `O=C(NO)c1cnc(N2CCN(S(=O)(=O)c3ccc4ccccc4c3)CC2)nc1` + Cc1cnc(CNC(=O)c2c(=O)c3ccc(N4CCCN(C)CC4)nc3n3c2sc2ccccc23)cn1, the IC50 falls from 1740 nM to 140 nM (12-fold).

`Cc1[nH]c2ccccc2c1CCNCc1ccc(/C=C/C(=O)NO)cc1` + Cc1cnc(CNC(=O)c2c(=O)c3ccc(N4CCCN(C)CC4)nc3n3c2sc2ccccc23)cn1 was tested, and the IC50 was 41.6 nM.

same assay, conditions: curve of first compound; second compound 3.16 µM; spheroids with HUVEC and MSC

First: C#Cc1c(F)ccc2cc(O)cc(-c3ncc4c(N5CC6CCC(C5)N6)nc(OCC56CCCN5CC(F)C6)nc4c3F)c12 (stereo unspecified) + Cc1cnc(CNC(=O)c2c(=O)c3ccc(N4CCCN(C)CC4)nc3n3c2sc2ccccc23)cn1
Second: C=CCn1c(=O)c2cnc(Nc3ccc(N4CCN(C)CC4)cc3)nc2n1-c1cccc(C(C)(C)O)n1 + Cc1cnc(CNC(=O)c2c(=O)c3ccc(N4CCCN(C)CC4)nc3n3c2sc2ccccc23)cn1
The IC50 of the first is lower: under 31.6 nM for the first, 186 nM for the second.

Compared with `CC(C)(O)C1CCC(Nc2ccc3ncc(-c4cccc(C(F)(F)F)c4)n3n2)CC1` (stereo unspecified) + Cc1cnc(CNC(=O)c2c(=O)c3ccc(N4CCCN(C)CC4)nc3n3c2sc2ccccc23)cn1, `O=C(NO)c1cnc(N2CCN(S(=O)(=O)c3ccc4ccccc4c3)CC2)nc1` + Cc1cnc(CNC(=O)c2c(=O)c3ccc(N4CCCN(C)CC4)nc3n3c2sc2ccccc23)cn1 is 10-fold lower in IC50: 1360 nM for the first, 130 nM for the second. The second is the more potent here.

`Cc1[nH]c2ccccc2c1CCNCc1ccc(/C=C/C(=O)NO)cc1` + Cc1cnc(CNC(=O)c2c(=O)c3ccc(N4CCCN(C)CC4)nc3n3c2sc2ccccc23)cn1 gave an IC50 of 34.6 nM.

same assay, conditions: curve of first compound; second compound 10 µM; spheroids with HUVEC and MSC

In the case of `C#Cc1c(F)ccc2cc(O)cc(-c3ncc4c(N5CC6CCC(C5)N6)nc(OCC56CCCN5CC(F)C6)nc4c3F)c12` (stereo unspecified) + Cc1cnc(CNC(=O)c2c(=O)c3ccc(N4CCCN(C)CC4)nc3n3c2sc2ccccc23)cn1, the IC50 is reported as under 31.6 nM.
